Assay results reported in patent publication US12433876B2, “Septin inhibitors for treatment of cancers” (UNIVERSITY OF ROCHESTER, priority 2019, dated 2025).
Values joined by “and” are separate entries in the source; they are usually repeats but may differ in a detail not shown here. Identical values can stand only once.

Legend:
HE4 = HE4 ELISA, secreted and intracellular levels; type: cell-based, human
Procedure: Cell lines, Culture, and Reagents. Cells were maintained in either DMEM (SKOV-3, KLE, OVCAR-3, OVCAR8-C5 and IGROV-1) or RPMI-1640 (ECC-1 and HCH-1), supplemented with 10% fetal calf serum (or 20% for OVCAR-3), penicillin (100 units/mL), and streptomycin (100 μg/mL) at 37° C. with 5% CO2 in a humidified incubator. Antibodies were purchased from Abcam (septin-2; ab179436) and Cell Signaling Technology; ERK (9102), p-ERK (4370), -actin (3700), u-Tubulin (2144), EGFR (4267) and HER2 (4290). FCF was purchased from Abcam. All other chemicals were from Sigma Aldrich. Synthesis of Derivaties. […] The reaction was monitored using thin-layer chromatography plates with DCM-MeOH or pure ethyl acetate as eluent. Spots were monitored in a UV chamber. The reaction mixture, upon completion of the reaction, was poured into wet ice mixture and triturated, then the separated solid was filtered by vacuum. The product was washed with hexane, followed by diethyl ether, and was dried under vacuum. The compounds were characterized by spectrophotometric techniques. Quantitative Real-Time PCR. The indicated cell lines were transfected with siRNA targeting septin-2 or non-targeting control siRNA (Santa Cruz Biotechnology: sc-37007 or sc-40936) using Lipofectamine 3000 (Invitrogen). Tri reagent and Direct-zol kit (Zymo Research) were used to lyse and isolate total RNA. Reverse transcription was performed using iScript cDNA synthesis kit (BioRad), both following the manufacturer's recommendations. Quantitative real-time PCR was conducted using QuantStudio 12 K Flex Real-Time PCR System (ABI) and the Taqman Gene Expression Assay (ABI) consisting of the FAM-labeled probes as follows: SEPT2 (Hs01565417_ml); WFDC2 (Hs00899484_ml); TBP (Hs00427620_ml) or B2M (Hs00187842_ml), which was used as reference for normalization. Cell Viability, Proliferation and Apoptosis Assay. Cell viability, proliferation, and cellular apoptosis were measured using the MTS (Promega), BrdU cell proliferation (Cell Signaling Technology), and Caspase-Glo 3/7 apoptosis detection (Promega) assays, following the respective manufacturer's recommendations with suitable modification. Enzyme-Linked Immunosorbent Assay (ELISA) and Immunoblotting. Cells were maintained overnight in the culture media described above. […] Following the treatment, cell lysates and supernatants were collected and subjected to HE4 assay (Human HE4 Quantikine ELISA Kit, R&D Systems). The amount of HE4 in supernatant was normalized to the protein concentration of matching cell lysate. The levels of HER2 were determined by Human Total ErbB2/Her2 DuoSet IC ELISA (R&D systems. Wester blot analysis was conducted using the protocol previously published (see Kim, K. K. et al. Tetrathiomolybdate inhibits mitochondrial complex IV and mediates degradation of hypoxia-inducible factor-1alpha in cancer cells. Sci. Rep. 5, 14296, 2015). Data Acquisition and Statistical Analysis. Gene expression profiling of septins, comparing microdissected normal ovarian stroma (N=8) against that of tumor stroma samples (N=31) from high grade serous ovarian cancer patients, was obtained from Mixed Ovarian Cancer (CAFs)-Wong-77-u133p2 data-set through ‘R2: Genomics Analysis and Visualization Platform (http://r2/am/n1). […] Survival curves between septin high and low population and their statistical significance were analyzed using GraphPad Prism software (Mantel-Cox test). […]

ECC-1 cells [1] = assay: BrdU cell proliferation assay; type: cell-based; details: ECC-1, 48 hours
Procedure: (§1) Cell lines, Culture, and Reagents. Cells were maintained in either DMEM (SKOV-3, KLE, OVCAR-3, OVCAR8-C5 and IGROV-1) or RPMI-1640 (ECC-1 and HCH-1), supplemented with 10% fetal calf serum (or 20% for OVCAR-3), penicillin (100 units/mL), and streptomycin (100 μg/mL) at 37° C. with 5% CO2 in a humidified incubator. Antibodies were purchased from Abcam (septin-2; ab179436) and Cell Signaling Technology; ERK (9102), p-ERK (4370), -actin (3700), u-Tubulin (2144), EGFR (4267) and HER2 (4290). FCF was purchased from Abcam. All other chemicals were from Sigma Aldrich. Synthesis of Derivaties. […] The reaction was monitored using thin-layer chromatography plates with DCM-MeOH or pure ethyl acetate as eluent. Spots were monitored in a UV chamber. The reaction mixture, upon completion of the reaction, was poured into wet ice mixture and triturated, then the separated solid was filtered by vacuum. The product was washed with hexane, followed by diethyl ether, and was dried under vacuum. The compounds were characterized by spectrophotometric techniques. Quantitative Real-Time PCR. The indicated cell lines were transfected with siRNA targeting septin-2 or non-targeting control siRNA (Santa Cruz Biotechnology: sc-37007 or sc-40936) using Lipofectamine 3000 (Invitrogen). […] Quantitative real-time PCR was conducted using QuantStudio 12 K Flex Real-Time PCR System (ABI) and the Taqman Gene Expression Assay (ABI) consisting of the FAM-labeled probes as follows: SEPT2 (Hs01565417_ml); WFDC2 (Hs00899484_ml); TBP (Hs00427620_ml) or B2M (Hs00187842_ml), which was used as reference for normalization. […] Cell viability, proliferation, and cellular apoptosis were measured using the MTS (Promega), BrdU cell proliferation (Cell Signaling Technology), and Caspase-Glo 3/7 apoptosis detection (Promega) assays, following the respective manufacturer's recommendations with suitable modification. […] Survival curves between septin high and low population and their statistical significance were analyzed using GraphPad Prism software (Mantel-Cox test). […]

HER2 = assay: Western blot of HER2 expression in ECC-1 and HCH-1 cells; type: cell-based; details: UR214-7 33 μM, UR214-9 33 μM, FCF 300 μM, 24 hours
Procedure: as §1

[2] = test system: endometrial (ECC-1 and KLE) and ovarian (HCH-1, OVCAR-3, and SKOV-3) cancer cell lines; assay: MTS cell viability, gynecologic cancer cell line panel; type: cell-based
Procedure: Cell lines, Culture, and Reagents. Cells were maintained in either DMEM (SKOV-3, KLE, OVCAR-3, OVCAR8-C5 and IGROV-1) or RPMI-1640 (ECC-1 and HCH-1), supplemented with 10% fetal calf serum (or 20% for OVCAR-3), penicillin (100 units/mL), and streptomycin (100 μg/mL) at 37° C. with 5% CO2 in a humidified incubator. Antibodies were purchased from Abcam (septin-2; ab179436) and Cell Signaling Technology; ERK (9102), p-ERK (4370), -actin (3700), u-Tubulin (2144), EGFR (4267) and HER2 (4290). FCF was purchased from Abcam. All other chemicals were from Sigma Aldrich. Synthesis of Derivaties. […] The reaction was monitored using thin-layer chromatography plates with DCM-MeOH or pure ethyl acetate as eluent. Spots were monitored in a UV chamber. The reaction mixture, upon completion of the reaction, was poured into wet ice mixture and triturated, then the separated solid was filtered by vacuum. The product was washed with hexane, followed by diethyl ether, and was dried under vacuum. The compounds were characterized by spectrophotometric techniques. Quantitative Real-Time PCR. The indicated cell lines were transfected with siRNA targeting septin-2 or non-targeting control siRNA (Santa Cruz Biotechnology: sc-37007 or sc-40936) using Lipofectamine 3000 (Invitrogen). Tri reagent and Direct-zol kit (Zymo Research) were used to lyse and isolate total RNA. Reverse transcription was performed using iScript cDNA synthesis kit (BioRad), both following the manufacturer's recommendations. Quantitative real-time PCR was conducted using QuantStudio 12 K Flex Real-Time PCR System (ABI) and the Taqman Gene Expression Assay (ABI) consisting of the FAM-labeled probes as follows: SEPT2 (Hs01565417_ml); WFDC2 (Hs00899484_ml); TBP (Hs00427620_ml) or B2M (Hs00187842_ml), which was used as reference for normalization. Cell Viability, Proliferation and Apoptosis Assay. Cell viability, proliferation, and cellular apoptosis were measured using the MTS (Promega), BrdU cell proliferation (Cell Signaling Technology), and Caspase-Glo 3/7 apoptosis detection (Promega) assays, following the respective manufacturer's recommendations with suitable modification. Enzyme-Linked Immunosorbent Assay (ELISA) and Immunoblotting. Cells were maintained overnight in the culture media described above. […] Following the treatment, cell lysates and supernatants were collected and subjected to HE4 assay (Human HE4 Quantikine ELISA Kit, R&D Systems). The amount of HE4 in supernatant was normalized to the protein concentration of matching cell lysate. The levels of HER2 were determined by Human Total ErbB2/Her2 DuoSet IC ELISA (R&D systems. Wester blot analysis was conducted using the protocol previously published (see Kim, K. K. et al. Tetrathiomolybdate inhibits mitochondrial complex IV and mediates degradation of hypoxia-inducible factor-1alpha in cancer cells. Sci. Rep. 5, 14296, 2015). Data Acquisition and Statistical Analysis. Gene expression profiling of septins, comparing microdissected normal ovarian stroma (N=8) against that of tumor stroma samples (N=31) from high grade serous ovarian cancer patients, was obtained from Mixed Ovarian Cancer (CAFs)-Wong-77-u133p2 data-set through ‘R2: Genomics Analysis and Visualization Platform (http://r2/am/n1). Mean values with SD were plotted and compared using Student t-test (two tail, unpaired heteroscedastic t-test, significant difference when p<0.01). The prognostic assessment of septin-2 amongst different cancers or septins in endometrial cancer was conducted using TCGA data acquired through Human Protein Atlas (http://www.proteinatlas.org) (see Uhlen, M. et al. Towards a knowledge-based Human Protein Atlas. Nat. Biotechnol. 28, 1248-1250, 2010). Survival curves between septin high and low population and their statistical significance were analyzed using GraphPad Prism software (Mantel-Cox test). […] Structural Modification of FCF. […]

ECC-1 cells [3] = assay: MTS cell viability, ECC-1; type: cell-based; details: ECC-1, 48 hours
Procedure: as §1

septin-7 = assay: Immunoblot of septin-7 expression; type: cell-based; details: PANC-1, 1.0 and 10.0 μM, 48 hours

Compound | HE4 secretion (HE4; ECC-1 and HCH-1 cells, 5 hours) | HE4 secretion (HE4; OVCAR8-C5, 300 μM for 7 h) | intracellular levels of HE4 (HE4; OVCAR8-C5, 300 μM for 7 h) | proliferation (ECC-1 cells [1]; BrdU, lower dose ranges) | HER2 expression (HER2) | cell viability ([2]; FCF 0, 100, 300 μM, 24 or 72 hours, time- and dose-dependent (FIG. 1)) | viability (ECC-1 cells [3]; MTS, lower dose ranges) | concentration inhibiting proliferation (ECC-1 cells [1]; BrdU (FIG. 2B)) | septin-7 expression (immunoblot) (septin-7) | viability of tumor cells, dose-dependent (FIG. 2E) ([2]; 72 hours, MTS) | proliferation in multiple endometrial and ovarian cancer cells ([2]; at considerably lower doses than FCF) | concentration inhibiting viability (ECC-1 cells [3]; MTS (FIG. 2B))
O=C(Nc1ccccc1)Nc1ccnc(Cl)c1 [FCF, N-(2-chloro-4-pyridyl)-N′-phenylurea, reference compound] | dose-dependent | decrease in HE4 secretion | marginal increase | lacked activity | inhibition of HER2 expression | reduced the viability | lacked activity | – | – | – | – | –
O=C(Nc1cc(Cl)nc(Cl)c1)Nc1cccc(SC(F)(F)F)c1F [UR214-9] | – | – | – | – | inhibition of HER2 expression | – | – | ~4 µM and 4 to 5 µM | unaffected | potent activity across most cell lines | blocked proliferation | around 33 μM
